Source: patent US11242335B2, “Fluorine-substituted indazole compounds and uses thereof” (SUNSHINE LAKE PHARMA CO., LTD., priority 2017, dated 2022)

Experiments:
[1] = molecular target: T1, soluble guanylate cyclase (sGC) expressed by CHO-K1-Rat sGC monoclonal cell line (Rattus norvegicus, UniProt P19686+P20595); experiment: Effect on recombinant guanylate cyclase reporter cell line (CHO-K1-Rat sGC, Cisbio cGMP HTRF); assay type: cell-based; details: activating soluble guanylate cyclase
T1 construct: expressed in transfected cells; host or cells: CHO-K1
T1 sequence (P19686 1-690): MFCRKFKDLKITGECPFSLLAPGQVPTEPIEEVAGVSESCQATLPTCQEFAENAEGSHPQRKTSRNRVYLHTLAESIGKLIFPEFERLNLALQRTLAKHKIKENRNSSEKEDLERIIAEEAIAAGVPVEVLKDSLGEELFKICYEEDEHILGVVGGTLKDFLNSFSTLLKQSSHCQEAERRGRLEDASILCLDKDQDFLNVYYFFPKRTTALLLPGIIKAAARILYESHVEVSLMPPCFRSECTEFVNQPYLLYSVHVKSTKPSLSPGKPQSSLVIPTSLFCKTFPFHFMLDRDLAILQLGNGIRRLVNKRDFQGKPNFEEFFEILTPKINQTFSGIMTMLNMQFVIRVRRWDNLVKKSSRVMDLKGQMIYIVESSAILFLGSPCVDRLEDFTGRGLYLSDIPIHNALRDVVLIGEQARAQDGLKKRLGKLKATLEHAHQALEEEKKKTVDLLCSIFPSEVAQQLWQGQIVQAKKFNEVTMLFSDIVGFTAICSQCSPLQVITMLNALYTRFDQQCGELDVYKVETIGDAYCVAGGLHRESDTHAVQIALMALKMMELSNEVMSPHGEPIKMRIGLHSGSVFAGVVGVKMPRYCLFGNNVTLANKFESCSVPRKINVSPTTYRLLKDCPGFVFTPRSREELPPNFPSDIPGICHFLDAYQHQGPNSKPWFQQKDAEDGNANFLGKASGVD
T1 sequence (P20595 1-619): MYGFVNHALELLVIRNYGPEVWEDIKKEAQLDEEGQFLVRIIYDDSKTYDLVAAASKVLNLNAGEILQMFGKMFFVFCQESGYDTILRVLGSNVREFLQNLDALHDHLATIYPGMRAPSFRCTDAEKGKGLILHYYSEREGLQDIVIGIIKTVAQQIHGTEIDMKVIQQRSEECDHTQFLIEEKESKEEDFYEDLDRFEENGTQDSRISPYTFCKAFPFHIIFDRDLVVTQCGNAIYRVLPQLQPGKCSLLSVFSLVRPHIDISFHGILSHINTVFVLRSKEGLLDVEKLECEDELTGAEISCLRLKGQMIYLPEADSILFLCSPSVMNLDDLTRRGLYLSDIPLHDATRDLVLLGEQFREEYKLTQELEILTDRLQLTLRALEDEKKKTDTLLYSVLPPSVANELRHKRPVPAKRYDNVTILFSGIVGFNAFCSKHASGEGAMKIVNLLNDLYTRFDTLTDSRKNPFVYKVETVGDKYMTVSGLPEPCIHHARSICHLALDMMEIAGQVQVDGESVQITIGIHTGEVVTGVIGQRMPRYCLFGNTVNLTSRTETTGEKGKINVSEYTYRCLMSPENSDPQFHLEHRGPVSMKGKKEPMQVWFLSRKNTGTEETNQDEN
Excerpt: Transfection of Soluble Guanylate Cyclase (sGC) gene into CHO-K1 cells and selection of cells with stably and highly expressed sGC: Rat sGCα1 and Rat sGCβ1 Genes were synthesized, and then pcDNA3.1(+)-rat sGCα1 and pcDNA3.1/Hygro (+)-rat sGCβ1 plasmid were constructed; the plasmid was co-transfected into CHO-K1 cells, and a positive clone cell line stably expressing CHO-K1-Rat sGC was selected using the Cisbio cGMP HTRF assay kit.
The activity of the compound on the CHO-K1-Rat sGC monoclonal cell line was determined: The CHO-K1-Rat sGC monoclonal cell line was cultured, and used for test operation at degree of fusion of about 70% to 90%. The cells were resuspended in complete medium after TrypLE digestion; the cells were inoculated in a 384-well (low volume tissues culture treated) cell culture plate at a seeding density of 7500/well in 25 μL of complete medium and incubated at 37° C. in 5% CO2 atmosphere for 20 hours; the test compounds were dissolved and dilute with DMSO to give 10 concentration gradients (2× working concentration); 384-well cell culture plates were centrifugated (200 g) for 3 seconds by inversion at RT, medium was removed; The test compounds in each different concentration gradient and corresponding reagent were added into each cell well according to the detection process of Cisbio cGMP HTRF assay kit. The data were collected with Envision HTRF detector and the EC50 value of each compound in activating soluble guanylate cyclase was calculated.

[2] = Pharmacokinetics in male SD rats after intravenous and oral administration; assay type: in vivo; details: for F: po 5 mg/kg versus iv 1 mg/kg; for AUC(0-t) / Cmax / Tmax / clearance / half-life / Vd: rat, plasma; for Vd: read-out: Vss
Description: Preparation of test compound solution: The test compound was formulated with 5% dimethylsulfoxide, 5% Solutol HS 15 and 90% physiological saline to give solution, which was used for oral and intravenous administration.
Male SD rats weighing 190-250 g were randomly divided into two groups, each group had three members; one group received test compound at a dose of 1.0 mg/kg by intravenous injection, the other group received test compound at a dose of 2.5 or 5.0 mg/kg by oral. After dosing, blood samples were collected at time points of 0.0833, 0.25, 0.5, 1.0, 2.0, 4.0, 7.0 and 24 h. Standard curve was plotted based on concentrations of the samples in a suitable range, the concentrations of test compounds in plasma samples were determined by using AB SCIEX API4000 LC-MS/MS in MRM mode. Pharmacokinetic parameters were calculated according to drug concentration-time curve using a noncompartmental method by WinNonLin 6.3 software.

[3] = molecular target: T2, hERG potassium channel (Homo sapiens, UniProt Q12809); experiment: Inhibition of hERG potassium channel, manual patch clamp in HEK293 cells; assay type: cell-based; details: hERG tail current; HEK293 cells overexpressing hERG; whole cell patch clamp; 22-24° C.
T2 construct: expressed in transfected cells; host or cells: HEK293
T2 sequence (Q12809 whole entry): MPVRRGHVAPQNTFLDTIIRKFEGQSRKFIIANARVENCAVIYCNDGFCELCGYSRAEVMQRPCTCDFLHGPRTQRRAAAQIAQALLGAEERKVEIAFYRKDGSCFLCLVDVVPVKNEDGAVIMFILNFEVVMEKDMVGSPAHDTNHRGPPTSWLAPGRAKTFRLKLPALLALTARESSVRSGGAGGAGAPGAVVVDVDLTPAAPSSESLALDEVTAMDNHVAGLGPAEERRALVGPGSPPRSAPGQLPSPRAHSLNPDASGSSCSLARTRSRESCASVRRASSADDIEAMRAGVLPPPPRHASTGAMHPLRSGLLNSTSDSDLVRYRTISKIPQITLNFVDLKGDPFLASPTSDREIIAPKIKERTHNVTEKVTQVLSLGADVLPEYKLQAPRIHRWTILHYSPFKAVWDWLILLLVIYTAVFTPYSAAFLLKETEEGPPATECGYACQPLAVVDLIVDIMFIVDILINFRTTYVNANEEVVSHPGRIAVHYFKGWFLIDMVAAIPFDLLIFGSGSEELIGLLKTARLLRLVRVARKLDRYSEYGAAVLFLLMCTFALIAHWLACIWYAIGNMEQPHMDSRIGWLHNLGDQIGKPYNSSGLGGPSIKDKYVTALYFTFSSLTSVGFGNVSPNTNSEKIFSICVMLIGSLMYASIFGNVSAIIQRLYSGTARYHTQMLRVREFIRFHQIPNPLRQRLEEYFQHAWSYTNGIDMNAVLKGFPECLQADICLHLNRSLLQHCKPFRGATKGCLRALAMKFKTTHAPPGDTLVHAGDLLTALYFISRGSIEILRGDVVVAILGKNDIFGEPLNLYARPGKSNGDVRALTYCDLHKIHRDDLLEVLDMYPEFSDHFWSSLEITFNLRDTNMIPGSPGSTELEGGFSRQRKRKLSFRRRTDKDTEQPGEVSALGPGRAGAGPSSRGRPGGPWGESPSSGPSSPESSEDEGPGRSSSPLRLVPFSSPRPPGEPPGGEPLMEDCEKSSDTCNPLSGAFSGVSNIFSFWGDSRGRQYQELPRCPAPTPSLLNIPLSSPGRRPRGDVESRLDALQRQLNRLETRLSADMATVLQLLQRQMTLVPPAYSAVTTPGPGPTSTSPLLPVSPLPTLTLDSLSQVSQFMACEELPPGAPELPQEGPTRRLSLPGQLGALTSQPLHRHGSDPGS
Description: Each compound was weighed and dissolved in DMSO and diluted with DMSO to a serial solution (30, 10, 3.3, 1.1, 0.37 mM). The above serial solutions were diluted to 1000-fold with the extracellular fluid to prepare test solutions (final concentration was 30, 10, 3.3, 1.1, 0.37 μM respectively).
The HEK293 cells that overexpressed the hERG potassium channel were cultured in a 37° C., 5% CO2 incubator, and the culture medium contained DMEM, 15% fetal bovine serum, and 1% penicillin-streptomycin. When the cell density reached 80% of the culture plate, the cells were digested with trypsin/EDTA and transferred to a centrifuge tube, centrifuged at 1000 rpm for 3 minutes, then supernatant was discarded, and the cell culture medium was added. The cells were mixed uniformly by gently blowing and beating. […]
The whole cell recording mode was used to record the channel current in the experiment. Firstly, the extracellular fluid was perfused (approximately 2 mL per minute) and the data were continuous recorded, and the current was kept steady (the current decay was less than 5% in 5 minutes). […] The extracellular fluid containing the test compound was then perfused and the data were continuous recorded until the compound's inhibitory effect on the hERG current reached a steady state, at this time point the peak value of tail current was the current value after dosing. […]

EC50 [1] [nM] | F [2] [%] | AUC(0-t) ([2]; iv, 1 mg/kg) [ng·h/mL] | Cmax ([2]; iv, 1 mg/kg) [ng/mL] | Tmax ([2]; iv, 1 mg/kg) [h] | clearance ([2]; iv, 1 mg/kg) [mL/min/kg] | half-life ([2]; iv, 1 mg/kg) [h] | Vd ([2]; iv, 1 mg/kg) [L/kg] | AUC(0-t) ([2]; po, 5 mg/kg) [ng·h/mL] | Cmax ([2]; po, 5 mg/kg) [ng/mL] | Tmax ([2]; po, 5 mg/kg) [h] | half-life ([2]; po, 5 mg/kg) [h] | Compound | IC50 [3] [nM]
220 | 138.6 | 2020 | 680 | 0.083 | 6.16 | 3.7 | 1.88 | 14000 | 1130 | 2 | 3.61 | COC(=O)N(C)c1c(N)nc(-c2nn(Cc3ccccc3F)c3c(F)cc(F)cc23)nc1N [Example 2, methyl (4,6-diamino-2-(5,7-difluoro-1-(2-fluorobenzyl)-1H-indazol-3-yl)pyrimidin-5-yl)(methyl)carbamate] | –
– | 93.4 | 10300 | 2820 | 0.083 | 1.59 | 4.49 | 0.483 | 39700 | 2690 | 3.5 | 10.9 | COC(=O)Nc1c(N)nc(-c2nn(Cc3ccccc3F)c3cc(F)ccc23)nc1N [Example 5, methyl (4,6-diamino-2-(6-fluoro-1-(2-fluorobenzyl)-1H-indazol-3-yl)pyrimidin-5-yl)carbamate] | > 30000
230 | 135.3 | 2700 | 1310 | 0.083 | 6.18 | 1.57 | 1.07 | 18300 | 2480 | 1.33 | 2.98 | COC(=O)N(C)c1c(N)nc(-c2nn(Cc3ccccc3F)c3cc(F)ccc23)nc1N [Example 6, methyl (4,6-diamino-2-(6-fluoro-1-(2-fluorobenzyl)-1H-indazol-3-yl)pyrimidin-5-yl)(methyl)carbamate] | –
82 | 107.3 | 1220 | 834 | 0.083 | 13.4 | 1.37 | 1.35 | 6580 | 1080 | 1.67 | 2.45 | COC(=O)N(C)c1c(N)nc(-c2nn(Cc3ccccc3F)c3c(F)cccc23)nc1N [Example 11, methyl (4,6-diamino-2-(7-fluoro-1-(2-fluorobenzyl)-1H-indazol-3-yl)pyrimidin-5-yl)(methyl)carbamate] | –
36 | 109.8 | 921 | 778 | 0.083 | – | 0.916 | 6.38 | 5010 | 1170 | 1.67 | 1.57 | Nc1nc(-c2nn(Cc3ccccc3F)c3c(F)cccc23)nc(N)c1N1CCCS1(=O)=O [Example 13, 2-(4,6-diamino-2-(7-fluoro-1-(2-fluorobenzyl)-1H-indazol-3-yl)pyrimidin-5-yl)isothiazolidine 1,1-dioxide] | –
300 | 86 | 2060 | 981 | 0.083 | 7.91 | 5.56 | 2.03 | 8860 | 768 | 3 | 3.13 | Nc1nc(-c2nn(Cc3ccccc3F)c3c(F)cccc23)nc(N)c1N1CCOC1=O [Example 15, 3-(4,6-diamino-2-(7-fluoro-1-(2-fluorobenzyl)-1H-indazol-3-yl)pyrimidin-5-yl)oxazolidin-2-one] | –
